Source: US4769378A, “Indenopyrimidine aromatase inhibitors” (Eli Lilly and Company, priority 1986, dated 1988)
pEC50: −log10 of the molar value. Read-outs that look alike come from different tables or passages of the source.

Tests used:
aromatase = target: T1, aromatase (Rattus norvegicus, UniProt P22443); test: Aromatase inhibition in the rat ovarian microsome assay; type: biochemical; details: substrate (androstenedione) concentration 0.1 μM; rat ovarian microsomes; read-out: EC50 (concentration of compound required to achieve 50% inhibition of aromatase activity)
T1 construct: ovarian microsomes are obtained from rats treated with pregnant mares serum gonadotropin; from tissue; host or cells: rat ovary microsomes (rats treated with pregnant mares serum gonadotropin)
T1 sequence (P22443 1-508): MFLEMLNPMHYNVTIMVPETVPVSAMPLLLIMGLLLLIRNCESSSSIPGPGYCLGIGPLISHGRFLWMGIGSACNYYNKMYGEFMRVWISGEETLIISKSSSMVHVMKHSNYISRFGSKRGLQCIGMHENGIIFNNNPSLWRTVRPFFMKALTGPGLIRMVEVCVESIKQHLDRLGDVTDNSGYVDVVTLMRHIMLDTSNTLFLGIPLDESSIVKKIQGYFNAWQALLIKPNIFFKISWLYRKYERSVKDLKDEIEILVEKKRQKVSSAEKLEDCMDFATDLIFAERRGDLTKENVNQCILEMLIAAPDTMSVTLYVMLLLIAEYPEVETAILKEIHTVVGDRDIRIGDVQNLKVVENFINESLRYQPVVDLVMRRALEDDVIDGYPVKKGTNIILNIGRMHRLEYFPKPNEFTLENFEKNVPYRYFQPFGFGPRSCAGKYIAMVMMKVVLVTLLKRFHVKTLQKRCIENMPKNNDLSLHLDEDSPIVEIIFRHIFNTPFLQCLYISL
Description: In this test system, ovarian microsomes are obtained from rats treated with pregnant mares serum gonadotropin. Test compounds are added to reaction vials containing 0.1 μM 4-androstene-3,17-dione, 100,000 dpm 1,2[^3 H]-androstenedione, the microsomes and a NADPH generating system. The concentrations of the inhibitors tested ranged between 5 and 10000 nM. […] Potency is determined based on the concentration of inhibitor in nM required to produce a 50% inhibition of enzyme activity (EC50) when the concentration of substrate (androstenedione) is 0.1 μM.

[1] = system: Estrogen synthesis (aromatization); test: Estrogen Synthesis Inhibition in Rats; type: in vivo, immature female Wistar rats; details: Rattus norvegicus, po, 168 h, gavage; for response vs control in vivo at 3 mg/kg: 3 mg/kg × 7 days; for response vs control in vivo at 10 mg/kg: 10 mg/kg × 7 days; for response vs control in vivo at 30 mg/kg: 30 mg/kg × 7 days;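 on Uterine Wt. %: 100% equals the stimulated control's weight gain over the unstimulated control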
Description: By virtue of their ability to inhibit the enzyme aromatase, the compounds of this invention are able to inhibit the synthesis of estrogens in mammals, thereby making the compounds useful in the treatment of estrogen-dependent diseases, such as breast cancer.
Immature female Wistar rats (45-55 grams) were divided into control and test groups of 2-8 animals each. Test compounds were administered for seven days daily by gavage in corn oil. Control animals received corn oil without the test compound. Beginning on the fourth day of the test, all animals treated with the test compound and one half of the control animals were given a subcutaneous injection of 1.0 mg of testosterone propionate in corn oil. The remaining control animals received only an equivalent volume of corn oil. On the seventh day of the test, rats treated with testosterone propionate were injected subcutaneously with 100 μCi of [^3 H]-testosterone in 50 μl of saline-ethanol (3:1).
After two hours, the animals were killed by decapitation. Uteri were isolated, trimmed of extraneous connective tissue, and weighed. […] In the control animals treated with testosterone propionate, estrogens produced by aromatization stimulated the uterus resulting in an increase in weight.
Ovaries from rats treated with [^3 H]-testosterone were excised, cleaned of extraneous tissue, and homogenized in 2.5 ml of a 1.0 mM potassium phosphate buffer containing 3.0 mM MgCl2.6H2 O, 320 mM sucrose, and 0.25% Triton X-100 (polyethylene glycol p-isooctyl phenyl ether, Rohm and Haas) at pH 6.5. The ovarian steroids were extracted with 1.5 ml of 9:1 toluene/ethanol to which had been added 25 to 100 mcg each of unlabelled estradiol, estriol, and estrone, and approximately 1000 dpm of [^14 C]-estradiol. The samples were vortexed, centrifuged at 500×g for 10 minutes, and the organic phase was transferred to a conical vial. Two additional extractions were performed on the residue in the same way. The pooled organic extracts were evaporated for subsequent thin-layer chromatography.
Ovarian proteins were precipitated by the addition of 5.0 ml of ethanol to the remaining aqueous phase. After an overnight incubation at 4° C., the samples were centrifuged at 1500×g for 10 minutes. The supernatant was discarded and the pellet was dissolved in 0.3 N potassium hydroxide. Protein was determined according to the method of Bradford, Analytical Biochemistry, 72, 248 (1976).
The organic residue from each above extraction was redissolved in 9:1 dichloromethane/methanol. The solution of each sample was applied to separate silica gel thin layer chromatography plates which contained a fluorescent indicator. The plates were developed the first dimension with 160:38:1.5:0.5 dichloromethane/ethyl acetate/methanol/acetic acid to within 3 cm of the top of the plate. After air-drying, the plate was developed in the second dimension with 180:19:1 dichloromethane/methanol/ammonium hydroxide. The plate was air-dried and viewed under 254 nm UV light.
The visible spots were marked and the plates were sprayed with primulin (0.001% in 4:1 acetone/water) according to the method of Wright, J. Chromatography, 59, 220 (1971) which allowed for the identification of additional steroids under 365 nm UV light. The spots were scraped from the plate using a glass wool plugged Pasteur pipet attached to a vacuum line. The steroids were eluted directly into scintillation vials by the addition of 0.2 ml of dichloromethane followed by two washes each of 2.0 ml of methanol. The organic solvent was evaporated and 10.0 ml of scintillation fluid (Beckman Ready Solv-NA) was added to the vials. Samples were analyzed by liquid scintillation spectrometry and the corrections were made based on the recoveries of the [^14 C]-steroid.
In Table 2, values for uterine weight are expressed as the respective weights of drug treated (DT), unstimulated corn oil control (UC), and stimulated corn oil control (SC) according to the calculation %=100 (DT-UC)/(SC-UC). […]

[2] = system: DMBA-induced mammary tumors; test: DMBA-induced Mammary Tumor Inhibition; type: in vivo, female Sprague-Dawley rats
Description: Mammary tumors were produced in female Sprague-Dawley rats which were 50-60 days old by the gavage administration of 20 mg of 7,12-dimethylbenz[a]anthracene (DMBA). About six weeks after DMBA administration, the mammary glands were palpated at weekly intervals for the appearance of tumors. Whenever one or more tumors appeared and were measurable in an animal, that animal was selected for experimentation. […] Each control and test group contained 5-8 animals. Each test compound was administered in corn oil once daily by gavage. Every experiment included a group of control rats having tumors and were given corn oil vehicle by gavage. […] The area of each tumor was calculated by multiplying the shortest and longest diameters of the tumor. The treatment and measurement of animals continued for 4-6 weeks at which time the final areas of the tumors were determined. For each compound (and control) at each dose level, the change in the mean tumor area was determined. The mean change was analyzed for its significance using Dunnett's t-test.

breast cancer = details: Cancer Research, Vol. 42, Suppl 8 (1982); cited from earlier work
[3] = 100 (DT-UC)/(SC-UC), read-out: Uterine Wt. %
[4] = ovaries, percent of testosterone-treated controls, read-out: % steroid concentration, estradiol
[5] = ovaries, percent of testosterone-treated controls, read-out: % steroid concentration, estrone

Work on Clc1ccc(C2c3ccc(Cl)cc3-c3ncncc32)cc1 (stereo not shown) [Example 1, 8-chloro-5-(4-chlorophenyl)-5H-indeno[1,2-d]pyrimidine] yielded a pEC50 (aromatase) of 7.62, a response vs control in vivo at 3 mg/kg [1, 3] of 50.2% and a response vs control in vivo at 3 mg/kg [1, 4] of 31.5%. It also gave a response vs control in vivo at 3 mg/kg [1, 5] of 31.5%, a response vs control in vivo at 10 mg/kg [1, 3] of 37.3% and a response vs control in vivo at 10 mg/kg [1, 4] of 17.2%. For the same molecule, the response vs control in vivo at 10 mg/kg [1, 5] was 31.4%, the response vs control in vivo at 30 mg/kg [1, 3] was 20.6% and the response vs control in vivo at 30 mg/kg [1, 4] was 23.6%. The response vs control in vivo at 30 mg/kg [1, 5] was 118%, the “Final Tumor Area ± S.E.” value ([2]; Test I, 3 mg/kg daily by gavage, 4 weeks, control 741 ± 193) was 162 ± 93 mm^2 and the “Final Tumor Area ± S.E.” value ([2]; Test I, 10 mg/kg daily by gavage, 4 weeks, control 741 ± 193) was 74 ± 45 mm^2. For the same molecule, the “Final Tumor Area ± S.E.” value ([2]; Test I, 30 mg/kg daily by gavage, 4 weeks, control 741 ± 193) was 6 ± 6 mm^2.

For CCC1(c2ccc(N)cc2)CCC(=O)NC1=O (stereo not shown) [aminoglutethimide], the “effect in treatment of breast cancer” value (breast cancer) is given as “beneficial effect in treatment of breast cancer”.

With Clc1ccc(C2c3ccccc3-c3ncncc32)cc1 (stereo not shown) [Example 2, 5-(4-chlorophenyl)-5H-indeno[1,2-d]pyrimidine] the pEC50 (aromatase) was 7.68, the response vs control in vivo at 3 mg/kg [1, 3] was 49.1% and the response vs control in vivo at 3 mg/kg [1, 4] was 40.5%. The response vs control in vivo at 3 mg/kg [1, 5] was 106%, the response vs control in vivo at 30 mg/kg [1, 3] was 33.3% and the response vs control in vivo at 30 mg/kg [1, 4] was 19.4%. For the same molecule, the response vs control in vivo at 30 mg/kg [1, 5] was 83.2%, the “Final Tumor Area ± S.E.” value ([2]; Test II, 10 mg/kg daily by gavage, 4 weeks, control 698 ± 78) was 287 ± 94 mm^2 and the “Final Tumor Area ± S.E.” value ([2]; Test II, 30 mg/kg daily by gavage, 4 weeks, control 698 ± 78) was 814 ± 223 mm^2. The “Final Tumor Area ± S.E.” value ([2]; Test II, 50 mg/kg daily by gavage, 4 weeks, control 698 ± 78) was 552 ± 177 mm^2.

Fc1ccc(C2c3ccc(F)cc3-c3ncncc32)cc1 (stereo not shown) [Example 6, 8-fluoro-5-(4-fluorophenyl)-5H-indeno[1,2-d]pyrimidine] showed a pEC50 (aromatase) of 7.62, a response vs control in vivo at 3 mg/kg [1, 3] of 0.7% and a response vs control in vivo at 3 mg/kg [1, 4] of 10.2%. The response vs control in vivo at 3 mg/kg [1, 5] was 70.3%, the response vs control in vivo at 30 mg/kg [1, 3] was 6.9% and the response vs control in vivo at 30 mg/kg [1, 4] was 2.9%. The response vs control in vivo at 30 mg/kg [1, 5] was 57.1%, the “Final Tumor Area ± S.E.” value ([2]; Test III, 10 mg/kg daily by gavage, 6 weeks, control 2053 ± 778) was 109 ± 62 mm^2 and the “Final Tumor Area ± S.E.” value ([2]; Test III, 30 mg/kg daily by gavage, 6 weeks, control 2053 ± 778) was 393 ± 254 mm^2.

In the case of C[C@]12CCC(=O)C=C1CC[C@@H]1[C@@H]2CC[C@]2(C)OC(=O)CC[C@@H]12 [testololactone], the “effect in treatment of breast cancer” value (breast cancer) is listed as “beneficial effect in treatment of breast cancer”.
